Data taken from ChEMBL document CHEMBL1132914, “4-[(8-Alkyl-8-azabicyclo[3.2.1]octyl-3-yl)-3-arylanilino]-N,N-diethylbenzamides: high affinity, selective ligands for the delta opioid receptor illustrate factors important to antagonist activity” (Bioorg Med Chem Lett, 2000).

Tests used:
[1] = species on record: Cavia porcellus; assay: Percent stimulation of [35S]GTP-gamma-S, binding by the compound (10 uM) in guinea pig caudate membranes for unblocked condition; assay type: functional
[2] = species on record: Cavia porcellus; assay: Percent stimulation of [35S]GTP-gamma-S, binding by the compound in guinea pig caudate membranes for unblocked condition; assay type: functional, organism-based

SMILES | Stimulation [1] [%] | Stimulation [2] [%]
C=CCN1[C@@H]2CC[C@H]1C[C@@H](N(c1ccc(C(=O)N(CC)CC)cc1)c1cccc(O)c1)C2 | 79 | 
C/C=C\CN1C2CCC1CC(N(c1ccc(C(=O)N(CC)CC)cc1)c1cccc(OC)c1)C2 (stereo not given) | 37 | 
C=CCN1C[C@H](C)N([C@H](c2ccc(C(=O)N(CC)CC)cc2)c2cccc(OC)c2)C[C@H]1C |  | 102
C=CCN1[C@@H]2CC[C@H]1C[C@@H](N(c1ccc(C(=O)N(CC)CC)cc1)c1cccc(OC)c1)C2 | 46 | 
CCN(CC)C(=O)c1ccc(N(c2cccc(OC)c2)[C@H]2C[C@H]3CC[C@@H](C2)N3CC=C(C)C)cc1 | 29 | 
